Reference: patent publication US20100298141A1, “SUBSTITUTED PYRIDINE N-OXIDE HERBICIDES” (E. I. DU PONT DE NEMOURS AND COMPANY, priority 2007, published 2010)

Key:
giant foxtail = assay: Test A pre-/postemergence greenhouse test; format: in vivo, Setaria faberi; settings: for Foxtail, Giant plant response rating: 0 to 100 scale; for Plant response rating, Foxtail, Giant: 0 to 100 scale where 0 is no effect and 100 is complete control
Summary of the method: (§1)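 Herbicidal effect is a visual injury score given about ten days post-treatment by comparison with untreated controls. Preemergence plots received a directed spray onto sown loam–sand soil; postemergence plants, at the one- to two-leaf stage and 2–10 cm tall, were sprayed at the same time.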

velvetleaf = assay: Test A pre-/postemergence greenhouse test; format: in vivo, Abutilon theophrasti; settings: for Velvetleaf plant response rating: 0 to 100 scale; for Plant response rating, Velvetleaf: 0 to 100 scale where 0 is no effect and 100 is complete control
Summary of the method: as §1

wheat = assay: Test C pre-/postemergence test; format: in vivo, Triticum aestivum; settings: for Plant response rating, Wheat: 31 g ai/ha, scale 0 to 100 (0 no effect, 100 complete control)
Summary of the method: (§2)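 Test chemicals were formulated with surfactant in a non-phytotoxic solvent and sprayed both on freshly planted seeds (preemergence) and on 1- to 4-leaf plants of 2–18 cm (postemergence). Flooded-paddy pots received compound directly into 3 cm of standing water, maintained for the test.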

common ragweed = assay: Test C pre-/postemergence test; format: in vivo, Ambrosia elation; settings: for Plant response rating, Ragweed: 31 g ai/ha, scale 0 to 100 (0 no effect, 100 complete control)
Summary of the method: as §2

barnyardgrass = assay: Test C flooded paddy test; format: in vivo, Echinochloa crus-galli; settings: Flood
Summary of the method: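 Flooded 3 cm over soil; compound into paddy water; depth kept constant. Greenhouse 13–15 d.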

green foxtail = assay: Test F preemergence test; format: in vivo, Setaria viridis; settings: scale 0 to 100
Summary of the method: (§3)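 Test chemicals in a non-phytotoxic solvent mixture containing a surfactant were applied preemergence to sown seeds or postemergence to sugarcane plants. Treated plants and controls were held in a greenhouse for 14 to 21 days, then visually evaluated against controls.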

purple nutsedge = assay: Test F preemergence test; format: in vivo, Cyperus rotundus; settings: scale 0 to 100
Summary of the method: as §3

southern sandbur = assay: Test F preemergence test; format: in vivo, Cenchrus echinatus; settings: scale 0 to 100; for Sandbur plant response rating: 125 g ai/ha
Summary of the method: as §3

annual bluegrass = assay: Test F preemergence test; format: in vivo, Poa annua; settings: scale 0 to 100
Summary of the method: as §3

field bindweed = assay: Test F preemergence test; format: in vivo, Convolvulus arvensis; settings: scale 0 to 100
Summary of the method: as §3

common mallow = assay: Test F preemergence test; format: in vivo, Malva sylvestris; settings: scale 0 to 100
Excerpt: Seeds of plant species selected from bermudagrass (Cynodon dactylon), Surinam grass (Brachiaria decumbens), large crabgrass (Digitaria sanguinalis), green foxtail (Setaria viridis), goosegrass (Eleusine indica), johnsongrass (Sorghum halepense), kochia (Kochia scoparia), pitted morningglory (Ipomoea lacunosa), purple nutsedge (Cyperus rotundus), common ragweed (Ambrosia elation), mustard (Brassica nigra), guineagrass (Panicum maximum), […] (Paspalum dilatatum), barnyardgrass (Echinochloa crus-galli), southern sandbur (Cenchrus echinatus), common sowthistle (Sonchus oleraceous), prickly […] spinosa), Italian ryegrass (Lolium multiflorum), common purslane (Portulaca oleracea), broadleaf signalgrass (Brachiaria platyphylla), common groundsel (Senecio vulgaris), common chickweed (Stellaria media), Virginia dayflower (Commelina virginica), annual bluegrass (Poa annua), naked crabgrass (Digitaria nuda), […] cochinchinensis), quackgrass (Elytrigia repens), Canada horseweed (Conyza canadensis), field bindweed (Convolvulus arvensis), […] (Bidens bipinnata), common mallow (Malva sylvestris), Russian thistle (Salsola kali), and sugarcane (Saccharum officinarum) were planted and treated preemergence with test chemicals formulated in a non-phytotoxic solvent mixture which included a surfactant. At a different time, sugarcane was treated with postemergence applications of some of the test chemicals formulated in the same manner. Plants were approximately 3- to 4-leaf stage for the postemergence treatments. Treated plants and controls were maintained in a greenhouse for 14 to 21 days, after which time all species were compared to controls and visually evaluated. […] A dash (-) response means no test result.

[1] = Postemergence, 125 g ai/ha, 0 is no effect, 100 is complete control
[2] = Postemergence, 500 g ai/ha, 0 is no effect, 100 is complete control
[3] = Preemergence, 125 g ai/ha, 0 no effect, 100 complete control
[4] = 62 g ai/ha, Preemergence, scale 0 to 100
[5] = 31 g ai/ha, scale 0 to 100 (0 no effect, 100 complete control)
[6] = 62 g ai/ha, scale 0 to 100, 0 no effect, 100 complete control, 13 to 15 days
[7] = 125 g ai/ha, scale 0 to 100, 0 no effect, 100 complete control, 13 to 15 days
[8] = 250 g ai/ha, scale 0 to 100, 0 no effect, 100 complete control, 13 to 15 days
[9] = preemergence, 250 g ai/ha, scale 0 (no effect) to 100 (complete control)

## Cc1cc[n+]([O-])c(S(=O)(=O)Cc2c(C(F)(F)F)nn(C)c2OCC(F)(F)F)c1 [Compound 31]
Giant foxtail; [1]
  Foxtail, Giant plant response rating: 80
Giant foxtail; [2]
  Foxtail, Giant plant response rating: 90
Giant foxtail; [3]
  Foxtail, Giant plant response rating: 100
Giant foxtail; Preemergence, 500 g ai/ha
  Plant response rating, Foxtail, Giant: 100
velvetleaf; [1]
  Velvetleaf plant response rating: 50
velvetleaf; [2]
  Velvetleaf plant response rating: 60
velvetleaf; [3]
  Velvetleaf plant response rating: 30
velvetleaf; Preemergence, 500 g ai/ha
  Plant response rating, Velvetleaf: 90
wheat; [4]
  Wheat plant response rating: 30
wheat; Preemergence
  Plant response rating, Wheat: 0
Common ragweed; [4]
  Ragweed plant response rating: 10
Common ragweed; Preemergence
  Plant response rating, Ragweed: 0
barnyardgrass; [5]
  Plant response rating, Barnyardgrass: 0
barnyardgrass; [6]
  Plant response rating, Barnyardgrass: 0
barnyardgrass; [7]
  Plant response rating, Barnyardgrass: 30
barnyardgrass; [8]
  Plant response rating, Barnyardgrass: 75
Green foxtail; 16 g ai/ha, preemergence
  Plant response rating, Foxtail, Green: 60
Green foxtail; 62 g ai/ha, Preemergence
  Foxtail, Green plant response rating: 100
Green foxtail; 125 g ai/ha, preemergence
  Foxtail, Green plant response rating: 100
Green foxtail; Preemergence, 31 g ai/ha
  Plant response rating, Foxtail, Green: 95
Purple nutsedge; 16 g ai/ha, preemergence
  Plant response rating, Purple Nutsedge: 40
Purple nutsedge; 62 g ai/ha, Preemergence
  Purple Nutsedge plant response rating: 70
Purple nutsedge; 125 g ai/ha, preemergence
  Purple Nutsedge plant response rating: 100
Purple nutsedge; Preemergence, 31 g ai/ha
  Plant response rating, Purple Nutsedge: 50
Southern sandbur; 16 g ai/ha, preemergence
  Plant response rating, Sandbur: 40
Southern sandbur; preemergence
  Sandbur plant response rating: 100
Southern sandbur; Preemergence, 62 g ai/ha
  Plant response rating, Sandbur: 100
Southern sandbur; Preemergence, 31 g ai/ha
  Plant response rating, Sandbur: 90
Annual bluegrass; 16 g ai/ha, preemergence
  Plant response rating, Bluegrass: 35
Annual bluegrass; 62 g ai/ha, Preemergence
  Bluegrass plant response rating: 75
Annual bluegrass; 125 g ai/ha, preemergence
  Bluegrass plant response rating: 90
Annual bluegrass; Preemergence, 31 g ai/ha
  Plant response rating, Bluegrass: 65
Field bindweed; 16 g ai/ha, preemergence
  Plant response rating, Field Bindweed: 0
Field bindweed; 62 g ai/ha, Preemergence
  Field Bindweed plant response rating: 40
Field bindweed; 125 g ai/ha, preemergence
  Field Bindweed plant response rating: 70
Field bindweed; Preemergence, 31 g ai/ha
  Plant response rating, Field Bindweed: 0
Common mallow; 16 g ai/ha, preemergence
  Plant response rating, Mallow: 0
Common mallow; 62 g ai/ha, Preemergence
  Mallow plant response rating: 100
Common mallow; 125 g ai/ha, preemergence
  Mallow plant response rating: 100
Common mallow; Preemergence, 31 g ai/ha
  Plant response rating, Mallow: 100

## CC(c1c(C(F)(F)F)nn(C)c1OCC(F)(F)F)S(=O)(=O)c1cccc[n+]1[O-] (racemic) [Compound 33]
Giant foxtail; [1]
  Foxtail, Giant plant response rating: 90
Giant foxtail; [2]
  Foxtail, Giant plant response rating: 90
Giant foxtail; [3]
  Foxtail, Giant plant response rating: 100
Giant foxtail; Preemergence, 500 g ai/ha
  Plant response rating, Foxtail, Giant: 100
velvetleaf; [1]
  Velvetleaf plant response rating: 40
velvetleaf; [2]
  Velvetleaf plant response rating: 60
velvetleaf; [3]
  Velvetleaf plant response rating: 70
velvetleaf; Preemergence, 500 g ai/ha
  Plant response rating, Velvetleaf: 100
wheat; [4]
  Wheat plant response rating: 50
wheat; Preemergence
  Plant response rating, Wheat: 30
Common ragweed; [4]
  Ragweed plant response rating: 10
barnyardgrass; [5]
  Plant response rating, Barnyardgrass: 30
barnyardgrass; [6]
  Plant response rating, Barnyardgrass: 30
barnyardgrass; [7]
  Plant response rating, Barnyardgrass: 30
barnyardgrass; [8]
  Plant response rating, Barnyardgrass: 80
Green foxtail; 16 g ai/ha, preemergence
  Plant response rating, Foxtail, Green: 0
Green foxtail; 62 g ai/ha, Preemergence
  Foxtail, Green plant response rating: 100
Green foxtail; 125 g ai/ha, preemergence
  Foxtail, Green plant response rating: 100
Green foxtail; Preemergence, 31 g ai/ha
  Plant response rating, Foxtail, Green: 50
Purple nutsedge; 16 g ai/ha, preemergence
  Plant response rating, Purple Nutsedge: 0
Purple nutsedge; 62 g ai/ha, Preemergence
  Purple Nutsedge plant response rating: 85
Purple nutsedge; 125 g ai/ha, preemergence
  Purple Nutsedge plant response rating: 85
Purple nutsedge; Preemergence, 31 g ai/ha
  Plant response rating, Purple Nutsedge: 35
Southern sandbur; 16 g ai/ha, preemergence
  Plant response rating, Sandbur: 100
Southern sandbur; preemergence
  Sandbur plant response rating: 100
Southern sandbur; Preemergence, 62 g ai/ha
  Plant response rating, Sandbur: 100
Southern sandbur; Preemergence, 31 g ai/ha
  Plant response rating, Sandbur: 100
Annual bluegrass; 16 g ai/ha, preemergence
  Plant response rating, Bluegrass: 35
Annual bluegrass; 62 g ai/ha, Preemergence
  Bluegrass plant response rating: 100
Annual bluegrass; 125 g ai/ha, preemergence
  Bluegrass plant response rating: 100
Annual bluegrass; Preemergence, 31 g ai/ha
  Plant response rating, Bluegrass: 65
Field bindweed; 16 g ai/ha, preemergence
  Plant response rating, Field Bindweed: 0
Field bindweed; 62 g ai/ha, Preemergence
  Field Bindweed plant response rating: 50
Field bindweed; 125 g ai/ha, preemergence
  Field Bindweed plant response rating: 60
Field bindweed; Preemergence, 31 g ai/ha
  Plant response rating, Field Bindweed: 0
Common mallow; 16 g ai/ha, preemergence
  Plant response rating, Mallow: 100
Common mallow; 62 g ai/ha, Preemergence
  Mallow plant response rating: 100
Common mallow; 125 g ai/ha, preemergence
  Mallow plant response rating: 100
Common mallow; Preemergence, 31 g ai/ha
  Plant response rating, Mallow: 100

## CCn1nc(C(F)(F)F)c(C[S+]([O-])c2cc(C)cc[n+]2[O-])c1OCC(F)(F)F (racemic) [Compound 66]
Giant foxtail; Postemergence, 125 g ai/ha
  Plant response rating, Foxtail, Giant: 80
Giant foxtail; [2]
  Foxtail, Giant plant response rating: 90
Giant foxtail; [3]
  Foxtail, Giant plant response rating: 90
Giant foxtail; Preemergence, 500 g ai/ha
  Plant response rating, Foxtail, Giant: 100
velvetleaf; Postemergence, 125 g ai/ha
  Plant response rating, Velvetleaf: 60
velvetleaf; [2]
  Velvetleaf plant response rating: 80
velvetleaf; [3]
  Velvetleaf plant response rating: 60
velvetleaf; Preemergence, 500 g ai/ha
  Plant response rating, Velvetleaf: 100
wheat; [4]
  Wheat plant response rating: 85
wheat; 125 g ai/ha, preemergence, scale 0 (no effect) to 100 (complete control)
  Wheat plant response rating: 98
wheat; Preemergence
  Plant response rating, Wheat: 0
wheat; [9]
  Wheat plant response rating: 100
Common ragweed; [4]
  Ragweed plant response rating: 100
Common ragweed; Preemergence
  Plant response rating, Ragweed: 100
Common ragweed; [9]
  Ragweed plant response rating: 100
barnyardgrass; 62 g ai/ha, scale 0 to 100 (0 no effect, 100 complete control)
  Plant response rating, Barnyardgrass: 10
barnyardgrass; [8]
  Plant response rating, Barnyardgrass: 70
Green foxtail; 16 g ai/ha, preemergence
  Plant response rating, Foxtail, Green: 10
Green foxtail; 62 g ai/ha, Preemergence
  Foxtail, Green plant response rating: 90
Green foxtail; 125 g ai/ha, preemergence
  Foxtail, Green plant response rating: 100
Green foxtail; Preemergence, 31 g ai/ha
  Plant response rating, Foxtail, Green: 60
Purple nutsedge; 16 g ai/ha, preemergence
  Plant response rating, Purple Nutsedge: 25
Purple nutsedge; 62 g ai/ha, Preemergence
  Purple Nutsedge plant response rating: 60
Purple nutsedge; 125 g ai/ha, preemergence
  Purple Nutsedge plant response rating: 100
Purple nutsedge; Preemergence, 31 g ai/ha
  Plant response rating, Purple Nutsedge: 40
Southern sandbur; 16 g ai/ha, preemergence
  Plant response rating, Sandbur: 15
Southern sandbur; preemergence
  Sandbur plant response rating: 100
Southern sandbur; Preemergence, 62 g ai/ha
  Plant response rating, Sandbur: 100
Southern sandbur; Preemergence, 31 g ai/ha
  Plant response rating, Sandbur: 70
Annual bluegrass; 16 g ai/ha, preemergence
  Plant response rating, Bluegrass: 0
Annual bluegrass; 62 g ai/ha, Preemergence
  Bluegrass plant response rating: 70
Annual bluegrass; 125 g ai/ha, preemergence
  Bluegrass plant response rating: 80
Annual bluegrass; Preemergence, 31 g ai/ha
  Plant response rating, Bluegrass: 20
Field bindweed; 16 g ai/ha, preemergence
  Plant response rating, Field Bindweed: 30
Field bindweed; 62 g ai/ha, Preemergence
  Field Bindweed plant response rating: 40
Field bindweed; 125 g ai/ha, preemergence
  Field Bindweed plant response rating: 75
Field bindweed; Preemergence, 31 g ai/ha
  Plant response rating, Field Bindweed: 40
Common mallow; 16 g ai/ha, preemergence
  Plant response rating, Mallow: 0
Common mallow; 62 g ai/ha, Preemergence
  Mallow plant response rating: 80
Common mallow; 125 g ai/ha, preemergence
  Mallow plant response rating: 100
Common mallow; Preemergence, 31 g ai/ha
  Plant response rating, Mallow: 70
